Laboratory results as given in publication PMC3345099 (Journal of Immunology (Baltimore, Md. : 1950), 2012).
Residues, ends and D or L forms follow the SMILES beside them. No end group written: not given here.

Assays:
Assay in all cases: In vitro radiolabeled competitive HLA binding assay
[1] = target: HLA A*26:01 (purified MHC class I) (Homo sapiens, UniProt P04439, A114D/A173T/A270S/D101N/D185E/E277Q/E87N/F33Y/G231S/I121R/I218V/K168Q/L180W/L300P/L318F/P208A/P217A/Q86R/Q94H/R138Q/S129P/T187R/T323A/T345S/V100A/V358M)
[2] = target: HLA B*08:01 (purified MHC class I) (Homo sapiens, UniProt P01889, A93T/A95T/D138N/E176V/E187T/K202T/Q94N/R180D/S35A/V36M/Y33D/Y91F)
[3] = target: HLA A*02:01 (purified MHC class I) (Homo sapiens, UniProt P04439, D140Y/D185E/D98H/E176V/E277Q/G131W/G231S/I119V/I121R/I166T/I218V/L300P/L318F/N151K/N90K/P208A/P217A/Q86G/Q94H/R138H/R169H/T345S)
[4] = target: HLA B*40:01 (purified MHC class I) (Homo sapiens, UniProt P01889, A65T/A93T/A95T/D138N/D98Y/E176V/E69K/N87E/Q56L/Q94N/R180L/S121R/S35A/S48T/T167S/V36M/W171L/Y33H/Y91S)
[5] = target: HLA B*40:02 (purified MHC class I) (Homo sapiens, UniProt P01889, A65T/A93T/A95T/D138N/D201E/D98Y/E176V/E204Q/E69K/K202T/N87E/Q56L/Q94N/R180L/S48T/Y33H/Y91S)
[6] = target: HLA B*07:02 (purified MHC class I) (Homo sapiens, UniProt P01889)

Compound	IC50 [3] [nM]	other results
CSCC[C@H](NC(=O)[C@H](CO)NC(=O)[C@H](CS)NC(=O)[C@H](CS)NC(=O)[C@@H](NC(=O)[C@@H](NC(=O)[C@@H](N)CC(=O)O)C(C)C)C(C)C)C(=O)N[C@@H](CO)C(=O)N[C@@H](Cc1ccc(O)cc1)C(=O)O (H-DVVCCSMSY-OH)	–	IC50 [1]: 25 nM
CC(C)C[C@H](NC(=O)[C@H](CCC(=O)O)NC(=O)[C@H](CC(=O)O)NC(=O)[C@H](CS)NC(=O)[C@H](CCCCN)NC(=O)[C@H](CCCCN)NC(=O)[C@H](CCCCN)NC(=O)[C@H](CO)NC(=O)[C@@H](N)Cc1c[nH]cn1)C(=O)O	–	IC50 [2]: 764 nM
CC(C)C[C@H](NC(=O)[C@H](C)NC(=O)[C@H](CC(C)C)NC(=O)[C@@H](N)CC(C)C)C(=O)N[C@@H](CC(C)C)C(=O)N[C@@H](CO)C(=O)N[C@@H](CS)C(=O)N[C@@H](CC(C)C)C(=O)N[C@H](C(=O)N[C@H](C(=O)O)C(C)C)[C@@H](C)O	357	–
VLSDFKTWL	305	–
GIDPNIRTGV	722	–
LEDRDRSEL	–	IC50 [4]: 426 nM; IC50 [5]: 4270 nM
RLWHYPCTV	12	–
HPALVFDIT	–	IC50 [6]: 160 nM
GVDPNIRTGV	351	–
CC[C@H](C)[C@H](N)C(=O)N1CCC[C@H]1C(=O)N[C@@H](Cc1ccccc1)C(=O)N[C@@H](Cc1ccc(O)cc1)C(=O)NCC(=O)N[C@@H](CCCCN)C(=O)N[C@@H](C)C(=O)N[C@H](C(=O)O)[C@@H](C)CC	–	IC50 [6]: 497 nM
SLLAPGAKQNV	513	–
FLVGQLFTF	67	–
